Assay type in all cases: cell-based
Experiment [1] relates to mouse liver cells (Hepa1-6 cell line). As to the kind of experiment: Ketone (β-hydroxybutyrate) production in mouse liver cells. Conditions: for Effect of combining with OA on βHb production vs sum of individual effects: 1 μM to 10 μM + 100 μM OA; for βHb production when combined with oleic acid vs OA alone: 1 μM to 10 μM test nutrient + 100 μM OA; for βHb production when combined with fatty acid blend (K-one) vs blend alone: 1 μM to 10 μM test nutrient + 100 μM fatty acid blend; for Ketone production in the absence of a ketogenic fat blend: 5 μM each, alone or in combination; for βHb production, provided alone: test nutrient alone at 1 μM, 5 μM and 10 μM, no OA or fat blend, 6 hours; for Effect of combining with fatty acid blend on βHb production vs sum of individual effects: with 100 μM K-one fatty acid blend. The method, then:
An assay to measure ketone production in mouse liver cells (Hepa1-6 cell line) was used wherein cells were first grown to a monolayer (growth phase), then exposed to starvation to deplete cellular lipid stores and subsequently brought into a ketogenic phase wherein cells were cultured in presence of oleic acid or a ketogenic diet fat blend with or without the presence of one of C2 fatty acid, C4 fatty acid, C6 fatty acid, citric acid and nicotinamide riboside. The ketone body production was subsequently determined by measurement of beta-hydroxybutyrate in the cell culture medium according to the details set out below:
Starvation phase: At the end of the growth phase the cells formed a monolayer. The medium was exchanged for DMEM containing 1 mM glucose and antibiotics (1% penicillin & streptomycin) but no FBS. The medium was further supplemented with L-carnitine (a required co-factor for the uptake of fatty acids into the mitochondria, where fatty acids are turned into ketones). The cells were incubated in this medium for 24 hours. During this time, the cells were vastly deprived of glucose, lipids and hormones contained in FBS, forcing them to consume and empty their lipid stores. […] Moreover, the starvation phase is thought to induce specific metabolic changes that maximize the production of ketones.
Ketogenic phase: At the end of the starvation phase, the medium was exchanged for Krebs-Henseleit buffer (KHB) supplemented with the L-carnitine and the test nutrients (table 1, single fatty acids C2, C4, C6 and citrate, nicotinamide riboside in combination with oleic acid fatty acid blend).
The fatty acid blend has a similar fatty acid composition as the one used in a ketogenic diet (K-one). The content of every fatty acid in the blend is given as the molar ratio to Oleic acid (OA), whose molar content is set to 1. Dilutions of this blend were used to determine the dose response curve in FIGS. 1B and 1D. C2 and C4 are not included in the blend.
KHB is composed of salts and bicarbonate as a chemical buffer to maintain the osmotic pressure and acidity (pH) at physiological levels. Medium and long chain fatty acids are coupled to bovine serum albumin prior to the assay to make them soluble in KHB and allow their efficient uptake by the cells. The coupling is physiological since in humans, medium and long chain fatty acids are normally coupled to albumin for transport in the blood circulation. Short chain fatty acids (C2, C4) were not coupled to albumin in the assay as they are water-soluble and circulate freely in humans. The cells were incubated for 6 hours at 37° C. During this time they produce ketones from the test nutrients with little to no interference from other nutrients and secrete β-hydroxybutyrate (β) into the medium.
β-Hb measurements: At the end of the ketogenic phase, the whole medium was collected and dried by vacuum centrifugation for 20 hours at 21° C. The dry pellet was resuspended in a small volume of assay buffer to yield a 10-20-fold higher β-Hb concentration than in the medium. The samples were deproteinized using spin columns to measure the free unbound fraction of β-Hb. […] The Fluorescence was measured on a fluorescence microplate reader and is directly proportional to the β-Hb concentration in the sample within a range of 0.1 μM to 50 μM β-Hb.

Experiment [2] relates to NAD+ depleted mouse liver cells (Hepa1-6 cells). The experiment in a line: NAD+ replenishment of NAD+ depleted mouse liver cells under ketogenic diet-like conditions. From the text: A ketogenic diet treatment leads to great consumption of NAD+ and other metabolically relevant NAD+ derivatives such as NADP+ creating a state of NAD+ exhaustion. Therefore, it was hypothesized that nicotinamide riboside (NR) may replenish NAD+ and thus sustains ketone production more effectively in liver cells than other NAD+ precursors including nicotinamide (NAM), nicotinic acid (NA), Niacin (defined as the combination of NA and NAM) or the amino acid tryptophan (Trp). While NA and NAM have been commonly referred to as vitamin B3, NR is a recently discovered and naturally occurring vitamin B3 member. An assay was developed to measure NAD+ replenishment of NAD+ depleted mouse liver cells (Hepa1-6 cells) by NAD+ precursors under ketogenic diet-like conditions. In this assay, mouse liver cells were starved of glucose and depleted of NAD+ through incubation in a very low glucose (1 mM) medium free of vitamin B3, tryptophan (Trp) and FBS and supplemented with 10 nM of an NAD+ depleting drug called FK866. Thereafter, the cells were fed with NR or NAM or Niacin (combination of NAM and NA in a 1:1 molar ratio) or Trp to replenish NAD+. At the end of the supplementation phase, the cells were scraped and extracted using the NAD+ extraction buffer of the EnzyChrom™ NAD/NADH Assay Kit from BioAssay Systems. The NAD+ content of the cells was determined with the same kit following the manufacturer's manual. The NAD+ measurement is based on a lactate dehydrogenase reaction, in which NAD+ is reduced to NADH, which in turn reduces a formazan (MTT) reagent. The intensity of the reduced product colour, measured at 565 nm, is proportional to the NAD+ concentration in the sample. This assay is highly specific for NAD+ and has minimal interference (<1%) by NADP+ or NADPH.

The test system of experiment [3] is NAD+ depleted mouse liver cells. The experiment in a line: Ketone production of NAD+ depleted liver cells after NR replenishment. Conditions: NR 10 μM, 150 μM and 1000 μM. The method, then: To measure the impact of replenishing NAD+ in liver cells with NR on ketone production, mouse liver cells were nutrient-deprived in medium containing low (1 mM) glucose, no fetal bovine serum, and no NAD+ precursors in the form of vitamin B3 (Niacin, NA, NAM) or Trp, but supplemented with L-carnitine.
Concomitantly the cells were treated with FK866. These conditions created ketogenic diet like nutrient conditions and depleted the cells of NAD+ After 18 hours of incubation, FK866 was removed from the medium and a concentration range of NR was added for the replenishment of NAD+. After 24 hours, the cells were switched to Krebs-Henseleit buffer (KHB) containing L-carnitine and a concentration range (1 μM to 100 μM) of oleic acid, a long chain fatty acid, for 6 hours to induce and measure the production and secretion of b-hydroxybutyrate (βHB) into the medium.

Structures are written as SMILES. “Also recorded” adds a separate entry of the source.

This note sets out measurements from US20250017252A1, “Fatty acids for boostering ketogenic diet” (N.V. Nutricia, priority 2022, published 2025).

`CCCC(=O)O` [C4, butyric acid]: in experiment [1], the “Effect of combining with OA on βHb production vs sum of individual effects” value is “more than additive”, the “βHb production when combined with oleic acid vs OA alone” value (shortened to “βHb production … vs OA alone”) is “more βHb than providing 100 μM OA alone”, the “βHb production when combined with fatty acid blend (K-one) vs blend alone” value (from here on “βHb production when combined … vs blend alone”) was “more βHb than providing the 100 μM fatty acid blend alone” and the “Ketone production in the absence of a ketogenic fat blend” value is reported as “hardly any ketones”. Further, in experiment [1], the “βHb production, provided alone” value was “hardly yielded any βHb; also recorded: no βHb” and the “Effect of combining with fatty acid blend on βHb production vs sum of individual effects” value is “more than additive”. Moreover, the “Production of ketones from fatty acid blend concentration range” value in experiment [1] (fixed 10 μM C4 + 1 μM to 100 μM fatty acid blend vs blend without C4) is given as “increasingly enhanced the production of ketones”.

For the compound `CCCCCC(=O)O` [C6, caproic acid], in experiment [1], the “βHb production … vs OA alone” value is “potentiates the production of ketones”, the “βHb production when combined … vs blend alone” value is recorded as “potentiates the production of ketones”, the “Ketone production in the absence of a ketogenic fat blend” value is listed as “hardly any ketones” and the “Effect of combining with fatty acid blend on βHb production vs sum of individual effects” value is listed as “more than additive”. The “Concentration above which the fatty acid starts to be turned into βHb (substrate)” value in experiment [1] (dose-response curve 1 μM to 100 μM, alone) is “above 10 μM”.

In the case of `CCCCCCCC/C=C\CCCCCCCC(=O)O` [OA, oleic acid, reference compound], in experiment [1] (dose-response curve, substrate alone), the “Concentration at which top-level production of ketones is achieved” value is 100 µM.

With `O=C(/C=C/c1cccnc1)NCCCCC1CCN(C(=O)c2ccccc2)CC1` [FK866, reference compound], the “Depletion of NAD+ relative to baseline NAD+ content of untreated liver cells” value in experiment [2] (10 nM FK866) was around 70%.

Regarding `NC(=O)c1ccc[n+]([C@@H]2O[C@H](CO)[C@@H](O)[C@H]2O)c1` [NR, nicotinamide riboside], the “NAD+ content replenishment” value in experiment [2] (NAD+ depleted cells, within 24 hours of treatment) is “dose-dependently replenishes NAD+ content to and above this baseline”. The “Increase of NAD+ content vs equimolar NAM or Niacin” value in experiment [2] (high concentrations of 1 mM) was “significantly greater extent than equimolar amounts of NAM or Niacin”. Also, in experiment [2] (lower concentrations below 150 μM), the “Increase of NAD+ content vs equimolar Niacin” value was “greater extent than equimolar amounts of Niacin”. The “Top-level production of ketones” value in experiment [3] (NAD+ depleted cells, oleic acid 1 μM to 100 μM, 6 hours) was “increased the top-level production of ketones”. Besides, the “NAD+ content” value in experiment [3] (ketogenic diet like nutrient conditions) was “increased”.

As to `O=C(O)CC(O)(CC(=O)O)C(=O)O` [citrate, citric acid], the “Increase of ketone production from the fat blend” value in experiment [1] (citrate 200 μM to 1000 μM + 100 μM K-one fat blend) is 10-20%. Besides, in experiment [1] (citrate alone, no fat blend), the “Ketone production, citrate alone” value is recorded as “no ketones”. The “Effect of combining with fatty acid blend on βHb production vs sum of individual effects” value in experiment [1] is listed as “clearly greater than the sum”.

With `CC(=O)O` [C2, ethanoic acid], in experiment [1], the “Effect of combining with OA on βHb production vs sum of individual effects” value was “more than additive”; the “βHb production … vs OA alone” value is given as “more βHb than 100 μM OA alone”; the “βHb production when combined … vs blend alone” value was “slightly greater production of βHb”; the “βHb production, provided alone” value was “virtually no bHB; also recorded: no βHb”. Further, the “Effect of combining with fatty acid blend on βHb production vs sum of individual effects” value in experiment [1] was “more than additive”.
